According to ChEMBL document CHEMBL1201862, “PubChem BioAssay data set” (2004):
The source made the active and inactive calls.

Tests used:
[1] = molecular target: FAD-linked sulfhydryl oxidase ALR (Homo sapiens, UniProt P55789); experiment: inhibitors of human ALR sulfhydryl oxidase, dose response, biochemical, H2O2 detection, luminescence, cherry-pick (AID 493248)
[2] = molecular target: T1, Fatty acid synthase (Homo sapiens, UniProt P49327); experiment: FAS thioesterase domain inhibitors, dose response, biochemical, endpoint fluorescence intensity, uHTS hits (AID 624327); type: functional;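 further: fluorescence from hydrolysis of an O-methyl fluorescein acyl ester substrate by the enzyme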
T1 sequence (P49327 whole entry, the tested form may be a part): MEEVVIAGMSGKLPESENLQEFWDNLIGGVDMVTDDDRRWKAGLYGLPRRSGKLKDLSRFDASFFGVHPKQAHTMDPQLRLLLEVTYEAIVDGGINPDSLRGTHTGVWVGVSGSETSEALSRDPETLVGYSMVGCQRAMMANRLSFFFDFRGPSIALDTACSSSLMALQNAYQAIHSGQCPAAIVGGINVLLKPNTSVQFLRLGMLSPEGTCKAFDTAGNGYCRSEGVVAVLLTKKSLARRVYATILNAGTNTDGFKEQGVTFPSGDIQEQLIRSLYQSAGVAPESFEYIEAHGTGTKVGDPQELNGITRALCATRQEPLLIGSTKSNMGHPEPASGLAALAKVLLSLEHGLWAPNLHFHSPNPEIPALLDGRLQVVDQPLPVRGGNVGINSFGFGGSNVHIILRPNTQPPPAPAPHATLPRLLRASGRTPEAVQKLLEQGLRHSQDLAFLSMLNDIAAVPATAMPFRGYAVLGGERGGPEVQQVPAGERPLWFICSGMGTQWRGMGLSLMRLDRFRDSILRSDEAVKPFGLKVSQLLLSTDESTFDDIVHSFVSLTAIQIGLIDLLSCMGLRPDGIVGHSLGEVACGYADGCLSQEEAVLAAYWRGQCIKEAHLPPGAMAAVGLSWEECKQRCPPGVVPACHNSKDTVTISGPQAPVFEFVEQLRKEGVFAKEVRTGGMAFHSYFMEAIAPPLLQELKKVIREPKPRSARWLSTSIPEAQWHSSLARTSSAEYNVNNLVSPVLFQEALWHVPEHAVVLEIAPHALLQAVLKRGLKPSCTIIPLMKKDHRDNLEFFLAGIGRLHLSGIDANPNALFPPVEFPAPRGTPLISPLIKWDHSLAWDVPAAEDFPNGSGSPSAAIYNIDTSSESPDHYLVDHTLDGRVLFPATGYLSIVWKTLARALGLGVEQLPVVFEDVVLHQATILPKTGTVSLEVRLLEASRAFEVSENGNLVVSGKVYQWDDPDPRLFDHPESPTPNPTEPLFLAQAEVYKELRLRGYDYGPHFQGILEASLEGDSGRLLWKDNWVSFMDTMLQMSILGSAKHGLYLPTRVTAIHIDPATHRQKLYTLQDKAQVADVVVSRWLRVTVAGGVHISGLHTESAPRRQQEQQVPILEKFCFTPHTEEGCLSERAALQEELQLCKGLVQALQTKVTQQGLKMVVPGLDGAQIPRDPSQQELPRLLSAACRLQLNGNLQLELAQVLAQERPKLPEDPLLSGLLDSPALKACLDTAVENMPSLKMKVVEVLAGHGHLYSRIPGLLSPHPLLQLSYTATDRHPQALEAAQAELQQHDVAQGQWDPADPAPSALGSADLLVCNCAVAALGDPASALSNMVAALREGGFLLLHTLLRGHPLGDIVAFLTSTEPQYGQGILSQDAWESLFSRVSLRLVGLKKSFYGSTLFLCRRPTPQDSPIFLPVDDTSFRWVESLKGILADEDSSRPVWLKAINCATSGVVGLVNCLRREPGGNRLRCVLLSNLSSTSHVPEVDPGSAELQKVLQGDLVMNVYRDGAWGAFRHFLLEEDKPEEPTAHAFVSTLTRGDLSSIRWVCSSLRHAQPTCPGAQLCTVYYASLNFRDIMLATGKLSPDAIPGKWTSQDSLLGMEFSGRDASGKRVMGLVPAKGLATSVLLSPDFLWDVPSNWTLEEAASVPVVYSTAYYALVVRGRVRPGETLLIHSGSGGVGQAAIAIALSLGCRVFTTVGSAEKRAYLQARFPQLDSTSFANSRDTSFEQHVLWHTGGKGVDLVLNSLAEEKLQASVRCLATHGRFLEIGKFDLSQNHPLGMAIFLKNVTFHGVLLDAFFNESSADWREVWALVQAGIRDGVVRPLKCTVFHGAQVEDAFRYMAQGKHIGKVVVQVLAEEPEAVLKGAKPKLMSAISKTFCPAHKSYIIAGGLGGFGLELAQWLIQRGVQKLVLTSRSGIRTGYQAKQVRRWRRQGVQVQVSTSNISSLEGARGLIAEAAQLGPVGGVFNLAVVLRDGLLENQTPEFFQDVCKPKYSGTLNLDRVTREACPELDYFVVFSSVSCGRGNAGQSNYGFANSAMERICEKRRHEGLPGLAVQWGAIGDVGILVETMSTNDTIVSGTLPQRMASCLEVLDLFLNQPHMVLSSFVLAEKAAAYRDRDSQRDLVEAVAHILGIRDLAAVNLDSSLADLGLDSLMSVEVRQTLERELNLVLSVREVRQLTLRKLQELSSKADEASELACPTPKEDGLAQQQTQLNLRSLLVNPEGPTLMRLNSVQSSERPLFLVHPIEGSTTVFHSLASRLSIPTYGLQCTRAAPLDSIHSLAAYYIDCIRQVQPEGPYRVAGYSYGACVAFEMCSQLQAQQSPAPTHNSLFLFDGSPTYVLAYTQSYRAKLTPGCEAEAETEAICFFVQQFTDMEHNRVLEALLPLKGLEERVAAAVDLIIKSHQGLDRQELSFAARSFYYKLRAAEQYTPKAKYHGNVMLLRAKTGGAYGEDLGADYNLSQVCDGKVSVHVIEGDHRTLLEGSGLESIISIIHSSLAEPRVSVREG

[3] = molecular target: T1, Fatty acid synthase; experiment: FAS thioesterase domain inhibitors, dose response, biochemical, kinetic fluorescence intensity (AID 624326); type: functional;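 further: rate of fluorescence rise from hydrolysis of a fluorogenic O-methyl fluorescein ester substrate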
[4] = NIH-3T3 fibroblast cytotoxicity, dose response, cytotoxicity control, cell-based, fluorescence, Alamar Blue, secondary assay (AID 2327); type: functional;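 further: NIH-3T3 mouse fibroblasts cultured with fluconazole at 8 µg/mL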
[5] = molecular target: T2, Rac GTPase-activating protein 1 (Homo sapiens, UniProt Q9H0H5); experiment: MgcRacGAP GTPase-activating activity inhibitors, confirmation, biochemical, ADP Hunter fluorescence, primary and confirmatory (AID 624330); type: functional
T2 sequence (Q9H0H5 whole entry): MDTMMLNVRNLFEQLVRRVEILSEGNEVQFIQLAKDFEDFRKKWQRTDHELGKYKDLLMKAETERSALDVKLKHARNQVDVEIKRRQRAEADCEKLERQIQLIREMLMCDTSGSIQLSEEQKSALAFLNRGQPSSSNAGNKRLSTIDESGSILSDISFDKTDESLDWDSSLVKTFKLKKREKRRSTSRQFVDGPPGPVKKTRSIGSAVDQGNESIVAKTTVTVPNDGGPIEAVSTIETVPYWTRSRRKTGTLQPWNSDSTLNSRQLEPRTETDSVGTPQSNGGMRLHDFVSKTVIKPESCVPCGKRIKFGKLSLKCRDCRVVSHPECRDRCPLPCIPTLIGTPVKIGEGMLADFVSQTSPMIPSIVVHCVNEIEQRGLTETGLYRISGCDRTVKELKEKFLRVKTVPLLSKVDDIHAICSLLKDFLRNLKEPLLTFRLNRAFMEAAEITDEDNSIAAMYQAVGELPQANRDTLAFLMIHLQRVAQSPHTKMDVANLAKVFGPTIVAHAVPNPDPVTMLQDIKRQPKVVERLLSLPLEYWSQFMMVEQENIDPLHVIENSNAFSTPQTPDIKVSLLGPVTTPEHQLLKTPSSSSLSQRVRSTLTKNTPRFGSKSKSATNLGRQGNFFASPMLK

[6] = molecular target: T3, Replicative DNA helicase DnaB (Mycobacterium tuberculosis, UniProt P9WMR3); experiment: DnaB intein splicing inhibitors, dose response, biochemical, cell-free fluorescence (AID 449749); type: functional
T3 sequence (P9WMR3 whole entry): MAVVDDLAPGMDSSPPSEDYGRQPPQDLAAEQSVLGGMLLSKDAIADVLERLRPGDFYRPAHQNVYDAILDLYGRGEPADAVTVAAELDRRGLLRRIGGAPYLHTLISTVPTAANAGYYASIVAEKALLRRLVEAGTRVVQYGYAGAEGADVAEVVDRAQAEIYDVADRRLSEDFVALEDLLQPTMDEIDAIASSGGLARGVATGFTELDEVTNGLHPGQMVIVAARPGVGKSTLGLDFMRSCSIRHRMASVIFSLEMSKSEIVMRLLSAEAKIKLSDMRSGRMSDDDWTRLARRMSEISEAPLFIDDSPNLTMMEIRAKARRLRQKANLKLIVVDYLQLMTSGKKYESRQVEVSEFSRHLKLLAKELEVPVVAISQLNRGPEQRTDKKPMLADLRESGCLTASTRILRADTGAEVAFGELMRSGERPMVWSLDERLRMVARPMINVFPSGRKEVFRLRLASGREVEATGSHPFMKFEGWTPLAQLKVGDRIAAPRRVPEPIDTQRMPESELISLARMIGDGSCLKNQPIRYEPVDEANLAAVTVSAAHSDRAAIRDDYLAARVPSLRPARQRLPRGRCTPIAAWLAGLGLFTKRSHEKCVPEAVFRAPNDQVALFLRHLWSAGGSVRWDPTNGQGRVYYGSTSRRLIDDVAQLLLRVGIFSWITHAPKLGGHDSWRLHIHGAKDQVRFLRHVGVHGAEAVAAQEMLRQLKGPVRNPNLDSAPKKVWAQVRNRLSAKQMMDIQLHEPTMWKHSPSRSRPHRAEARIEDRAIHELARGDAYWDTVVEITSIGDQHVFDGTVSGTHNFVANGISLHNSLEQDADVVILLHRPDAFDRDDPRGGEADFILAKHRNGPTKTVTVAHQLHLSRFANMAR

[7] = molecular target: T4, Protein RecA (Mycobacterium tuberculosis, UniProt P9WHJ3); experiment: Fluorescence Cell-Free Homogeneous Dose Retest to Identify Inhibitors of RecA-Intein Splicing Activity. [Related pubchem assays (depositor defined):AID2097, AID2223, AID489010, AID492950]; type: functional
T4 sequence (P9WHJ3 whole entry): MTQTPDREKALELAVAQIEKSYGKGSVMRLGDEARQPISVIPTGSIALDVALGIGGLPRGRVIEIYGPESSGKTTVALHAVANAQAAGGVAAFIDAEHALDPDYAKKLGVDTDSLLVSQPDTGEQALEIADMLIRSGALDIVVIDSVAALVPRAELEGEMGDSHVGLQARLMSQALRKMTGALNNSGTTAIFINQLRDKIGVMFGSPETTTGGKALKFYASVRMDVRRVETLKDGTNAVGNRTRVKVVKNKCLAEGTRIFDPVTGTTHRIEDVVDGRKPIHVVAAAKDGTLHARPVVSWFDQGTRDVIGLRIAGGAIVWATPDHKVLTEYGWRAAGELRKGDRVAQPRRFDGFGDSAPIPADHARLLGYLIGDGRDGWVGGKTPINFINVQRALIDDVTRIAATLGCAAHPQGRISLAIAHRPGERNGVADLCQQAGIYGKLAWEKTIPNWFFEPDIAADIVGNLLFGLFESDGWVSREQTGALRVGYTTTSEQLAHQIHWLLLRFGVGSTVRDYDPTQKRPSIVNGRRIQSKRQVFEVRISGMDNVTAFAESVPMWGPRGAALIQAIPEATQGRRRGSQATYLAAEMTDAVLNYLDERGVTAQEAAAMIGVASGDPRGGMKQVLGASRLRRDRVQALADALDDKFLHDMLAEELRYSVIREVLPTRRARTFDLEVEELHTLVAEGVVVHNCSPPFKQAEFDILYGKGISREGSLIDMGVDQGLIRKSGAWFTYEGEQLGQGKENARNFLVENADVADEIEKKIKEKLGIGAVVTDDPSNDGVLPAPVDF

[8] = Luminescence Cell-Based Dose Response HTS to Identify Activators of Luciferase Translation or Activity in H4 […] Cells. [Related pubchem assays: 1829 (Project Summary), 1814 (Primary HTS)]; type: functional
[9] = system: H4; experiment: Luminescence Cell-Based Dose Response HTS to Identify Activators of 5'UTR Stem-Loop Driven Prion Protein mRNA Translation in H4 Neuroglioblastoma Cells. [Related pubchem assays: 1829 (Project Summary), 1814 (Primary HTS)]; type: functional; conditions: Homo sapiens
[10] = HEp-2 cell cytotoxicity, dose response, cytotoxicity control for RSV inhibitor project, HTS (AID 2410); type: functional; conditions: human respiratory syncytial virus
[11] = molecular target: Paired box protein Pax-8 (Homo sapiens, UniProt Q06710); experiment: inhibitors of PAX8-driven TPO luciferase reporter, dose response, RMG-I cells, cherry-pick (AID 687027); type: functional, cell-based;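 further: luciferase reporter driven by Pax8 target thyroperoxidase promoter measured by SteadyGlo luminescence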
Paired box protein Pax-8, sequence (Q06710 whole entry): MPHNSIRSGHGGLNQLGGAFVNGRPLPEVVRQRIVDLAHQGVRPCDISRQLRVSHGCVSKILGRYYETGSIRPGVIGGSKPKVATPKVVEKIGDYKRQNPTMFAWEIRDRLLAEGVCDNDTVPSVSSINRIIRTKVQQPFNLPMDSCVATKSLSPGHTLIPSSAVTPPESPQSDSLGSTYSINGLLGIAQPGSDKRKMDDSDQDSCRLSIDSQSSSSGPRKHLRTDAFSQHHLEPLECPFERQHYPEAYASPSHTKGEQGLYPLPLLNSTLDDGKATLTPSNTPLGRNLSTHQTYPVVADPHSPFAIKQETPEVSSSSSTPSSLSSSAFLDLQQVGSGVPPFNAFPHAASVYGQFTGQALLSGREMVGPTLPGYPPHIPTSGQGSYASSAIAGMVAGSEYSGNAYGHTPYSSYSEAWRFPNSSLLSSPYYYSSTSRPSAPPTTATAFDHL

[12] = molecular target: T5, Heat shock factor protein 1 (Mus musculus, UniProt P38532); experiment: HSF1 potentiators in luciferase reporter cells, confirmation, cell-based, NIH3T3, luminescence, dose retest (AID 435004); type: functional;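 further: stress induced by proteasome inhibitor MG132 added 30 min after compound; luciferase reporter driven by HSF1 response element in NIH3T3 cells; actives raise luminescence as potentiators of the MG132 stress response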
T5 sequence (P38532 whole entry): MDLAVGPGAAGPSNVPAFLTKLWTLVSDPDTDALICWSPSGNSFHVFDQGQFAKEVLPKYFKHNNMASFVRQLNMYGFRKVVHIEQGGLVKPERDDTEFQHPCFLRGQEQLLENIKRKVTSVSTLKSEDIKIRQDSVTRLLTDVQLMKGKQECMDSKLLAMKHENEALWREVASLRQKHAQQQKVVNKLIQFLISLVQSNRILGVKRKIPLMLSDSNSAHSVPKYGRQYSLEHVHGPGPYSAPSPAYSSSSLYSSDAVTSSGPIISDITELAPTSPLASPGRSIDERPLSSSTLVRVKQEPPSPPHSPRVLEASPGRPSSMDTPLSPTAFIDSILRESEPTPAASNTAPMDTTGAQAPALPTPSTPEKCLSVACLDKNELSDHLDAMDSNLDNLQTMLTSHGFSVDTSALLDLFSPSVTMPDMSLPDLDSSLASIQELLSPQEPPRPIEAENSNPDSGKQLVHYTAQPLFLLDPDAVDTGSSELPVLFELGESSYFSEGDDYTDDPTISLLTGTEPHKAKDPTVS

FAD-linked sulfhydryl oxidase ALR, sequence (P55789 whole entry, the tested form may be a part): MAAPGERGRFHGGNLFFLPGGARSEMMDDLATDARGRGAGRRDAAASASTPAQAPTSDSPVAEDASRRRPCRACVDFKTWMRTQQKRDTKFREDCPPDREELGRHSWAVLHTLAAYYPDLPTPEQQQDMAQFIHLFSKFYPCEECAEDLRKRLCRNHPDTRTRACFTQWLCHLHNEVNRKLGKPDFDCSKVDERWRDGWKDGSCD

CC(=O)Nc1sc(NC(=O)c2ccccc2)nc1-c1cccs1
AC50 [1]: 3.14 µM (active)

Cc1c(Br)c([N+](=O)[O-])nn1CC(=O)N1CCc2ccccc2C1
IC50 [2]: 4.38 µM (active) | IC50 [3]: 6.67 µM (active)

CCC1(c2ccc(Cl)cc2)N=C(S)N(c2ccccc2)N1 (stereo not drawn)
EC50 [4]: 14.2 µM (active)

CC(=O)Nc1ccc(N2C(=O)CSC2c2ccc(F)cc2)cc1 (stereo not drawn)
AC50 [1]: < 0.005 µM (active)

O=C1NC(=O)N(c2ccc(C(=O)O)cc2)C(=O)/C1=C/c1c[nH]c2ccccc12
AC50 [1]: 0.177 µM (active) | IC50 [5]: 97.5 µM (active)

Cc1ccc(/C=C/c2ccc(=O)n(Cc3ccc(F)cc3)n2)cc1
IC50 [2]: 11.8 µM (active) | IC50 [3]: 14 µM (active)

Cc1onc(-c2ccccc2)c1C(=O)n1nnc2ccccc21
AC50 [6]: 7.85 µM (active) | EC50 [7]: 13 µM (active) | IC50 [2]: 12.9 µM (active) | IC50 [3]: 10.3 µM (active)

COc1ccc(-c2ncc3ccccn23)cc1
EC50 [8]: 101 µM (active) | EC50 [9]: 32.1 µM (active)

CCN(CC)c1ccc(NS(=O)(=O)c2ccc3c(c2)oc(=O)n3C)c(C)c1
AC50 [1]: 0.409 µM (active)

O[C@H]1C[C@H](c2ccccc2)N(CC2CCCCC2)C[C@@H]1n1cc(C2CC2)nn1
IC50 [2]: 8.28 µM (active) | IC50 [3]: 6.52 µM (active)

COc1ccc(NC(=O)N2CCN(c3nc(-c4cccc(OC)c4)cs3)CC2)cc1
CC50 [10]: 9.75 µM (active)

CC(C(=O)NC1C=CS(=O)(=O)C1)N1C(=O)/C(=C\c2ccccc2)SC1=S (stereo not drawn)
AC50 [1]: 0.359 µM (active)

COc1ccc(C2=NC(c3ccccc3)CO2)cc1 (stereo not drawn)
EC50 [8]: 39.5 µM (active)

Cc1cc(C)c2c(c1)cc(C)c1nnc(SCC(=O)N3CCCc4ccccc43)n12
CC50 [10]: 44.2 µM (active)

O=C(Cc1ccc(Cl)cc1)Nc1ccc(Br)cc1
EC50 [4]: > 150 µM (inconclusive)

Cc1ccc2oc(-c3cccc(NC(=O)Cn4cnc5c(=O)n(C)c(=O)n(C)c54)c3)nc2c1
EC50 [8]: 42.3 µM (active) | EC50 [9]: 6.94 µM (active)

CCCN(C)C[C@H]1OCCCC[C@@H](C)Oc2ccc(NC(=O)Nc3ccc(C(F)(F)F)cc3)cc2C(=O)N([C@H](C)CO)C[C@H]1C
AC50 [11]: 23.1 µM (active)

CC(C(=O)NCCc1ccccc1)N1c2cccc3cccc(c23)S1(=O)=O (stereo not drawn)
CC50 [10]: 45.6 µM (active)

CC(OC(=O)c1cccc([N+](=O)[O-])c1)C(=O)N1CCc2ccccc21 (stereo not drawn)
IC50 [2]: 3.92 µM (active) | IC50 [3]: 3.98 µM (active)

CCOc1ccc(S(=O)(=O)N2CCC(C(=O)NCC(=O)Nc3cccc(Cl)c3C)CC2)cc1
CC50 [10]: 49.1 µM (active)

O=[N+]([O-])c1ccc(CSc2ccc(S(=O)(=O)N3CCCC3)cn2)cc1
IC50 [2]: 12.1 µM (active) | IC50 [3]: 10.6 µM (active)

CN(C)c1ccc(/C=N/NC(=O)CNC(=O)c2ccncc2)cc1
AC50 [1]: 3.61 µM (active)

CCOC(=O)c1ccc2[nH]c3c(c2c1)CCCC3O (stereo not drawn)
CC50 [10]: 47.1 µM (active)

CCOC(=O)N/N=C1\CCc2ccccc21
EC50 [8]: 7.73 µM (active) | EC50 [9]: 11.7 µM (active)

Cc1cccc(NNC(=O)C(=O)NNc2cccc(C)c2)c1
EC50 [4]: 2.38 µM (active)

CCS(=O)(=O)N1CCN=C1SCc1cccnc1
AC50 [1]: 2.06 µM (active)

CCCC(C)C1c2c(c(C)c(C)oc2=O)Oc2c(C)c(C)oc(=O)c21 (stereo not drawn)
IC50 [2]: 9.33 µM (active) | IC50 [3]: 8.38 µM (active)

CC[C@@H]1[C@H]2CCCC(=O)N3CC[C@@H](C[C@@H]1Nc1ccccc1)[C@@H]23
EC50 [12]: > 260 µM (inactive) | AC50 [1]: 0.008 µM (active)

COc1ccc(C(=O)CN(CCC(=O)O)S(=O)(=O)c2ccc([N+](=O)[O-])cc2)cc1
IC50 [2]: 3.51 µM (active) | IC50 [3]: 6.15 µM (active)

O=C(COC(=O)c1cc([N+](=O)[O-])ccc1N1CCOCC1)c1ccccc1
IC50 [2]: 9.63 µM (active) | IC50 [3]: 6.51 µM (active)

CCN(CC)c1ccc(NS(=O)(=O)c2ccc(OC)cc2)cc1
AC50 [1]: 5.11 µM (active)

CCC(=O)c1cc(F)c(N2CCN(C(=O)Cc3ccccc3)CC2)cc1C
CC50 [10]: 17 µM (active)
